Like-named read-outs stand apart in the source and are kept apart here.
What was measured:
[1] = system: S. aureus mutant strain R8.1; experiment: microbe, parasite or virus in culture; format: cell-based, Staphylococcus aureus; details: for MIC: 24 h
Description: (§1) All experiments were performed with S. aureus ATCC6538P. The strain was propagated at 37 °C in Mueller–Hinton Broth (BD Difco^TM) containing 20 mg/L of CaCl2 and 10 mg/L of MgCl2 (MHBC medium). For selection of resistant strains by direct plating, S. aureus cultures were grown until OD600 of 0.7, corresponding to 5 × 10^8 CFU/mL, centrifuged, and resuspended with fresh medium to 1 × 10^10 CFU/mL. Then, 100 µL were spread on Muller–Hinton Agar (BD Difco^TM) supplemented with 160 µg/mL or 640 µg/mL of NAI-112 and incubated at 37 °C. Colonies were scored after 10 days. For selection of resistant mutants by serial passages, MHBC medium containing serial, twofold dilutions of NAI-112, starting from 512 µg/mL down to 0.5 µg/mL, was inoculated with 1 × 10^5 CFU/mL in a 96-well microtiter plate. Cultures were incubated overnight at 37 °C. The culture at the highest concentration that supported growth was diluted to 1 × 10^5 CFU/mL with fresh medium and added to a fresh plate containing serial dilutions of NAI-112 as before, followed by overnight incubation. This process was continued for 15 passages. From cultures at passage 8 (grown at 64 µg/mL) and passage 15 (grown at 256 µg/mL), single colonies were isolated and named R8.1 and R8.2 (from the eighth series) and R15.1–15.5 (from the fifteenth series).
(§2) MICs were determined by the broth microdilution methodology in sterile 96-well microtiter plates according to Clinical and Laboratory Standards Institute (CLSI) guidelines, as described by Iorio et al.. When indicated, bovine serum albumin was added to MHBC medium at 0.02% (w/v). […] Growth curves were measured under the same conditions by recording the optical density at 595 nm (OD595) over 20 h using a Synergy 2.0 plate reader (BioTeck, Winooski, VT, USA).

[2] = system: S. aureus mutant strain R15.5; experiment: microbe, parasite or virus in culture; format: cell-based, Staphylococcus aureus; details: for MIC: 24 h; for MIC Ratio (R15.1 to wt): ratio of MICs, mutant to wt
Description: as §1, §2

S. aureus ATCC6538P (wt) = experiment: microbe, parasite or virus in culture; format: cell-based, Staphylococcus aureus; details: 24 h
Description: as §1, §2

TRPV1 [3] = details: cited from earlier work
From the text: In mice, this interference translates in lower LPA levels.

TRPV1 [4] = details: ref [24], cited from earlier work
From the text: The results from the lipidomic experiments in mice, from the binding assay analyzed in MS and from the analysis of the S. aureus mutants resistant to NAI-112, are consistent with the hypothesis that NAI-112 binds to one or more phosphate-containing lipids and, by doing so, interferes with the processing of these lipids by relevant enzymes. In mice, this interference translates in lower LPA levels.

[5] = cited from earlier work
[6] = class II lantibiotics; ref [29],[30],[31],[32]; cited from earlier work
From the text: A few studies have identified the molecular targets of lanthipeptides. […] Two-peptide lantibiotics, ...

virus = details: ref [7]; cited from earlier work
From the text: (§3) NAI-112 is a labionine (Lab)-containing lanthipeptide with a glycosylated tryptophan residue and an unusual methyl-Lab bridge. It was discovered in a phenotypic screening program for inhibitors of bacterial cell wall biosynthesis. […] At the time of its discovery, there was only one precedent of Lab-containing lanthipeptides, the labyrinthopeptins. In particular, despite having unrelated amino acid sequences, NAI-112 and labyrinthopeptin A2 share a similar ri ...

neuropathic pain = details: ref [7]; cited from earlier work
From the text: as §3

[7] = class I lanthipeptides, followed by pore formation or membrane disruption, ref [25],[26],[27]

## CC[C@H]1OC(=O)[C@H](C)[C@@H](O[C@H]2C[C@@](C)(OC)[C@@H](O)[C@H](C)O2)[C@H](C)[C@@H](O[C@@H]2O[C@H](C)C[C@H](N(C)C)[C@H]2O)[C@](C)(O)C[C@@H](C)C(=O)[C@H](C)[C@@H](O)[C@]1(C)O [Erythromycin, erythromycin]
[1]; Staphylococcus aureus
  MIC: 0.125 µg/mL
[2]; Staphylococcus aureus
  MIC: 0.125 µg/mL
[2]
  MIC Ratio (R15.1 to wt): 1
S. aureus ATCC6538P (wt); Staphylococcus aureus, ATCC6538P
  MIC: 0.125 µg/mL

## lysophosphatidic acid [LPA]
TRPV1 [3]; ref [10],[11]
  TRPV1 receptor activation: activates the TRPV1 receptor
TRPV1 [3]; ref [24]
  direct binding to TRPV1 ion channel: LPA binding directly to an ion channel
TRPV1 [4]; Trpv1-null animals
  acute pain-like behaviors: substantially reduced
TRPV1 [4]; control mice
  acute pain-like behaviors: produces acute pain-like behaviors

## ramoplanin
[1]; R8.1
  shift in MIC relative to wt, in words: modest but consistent shift
[1]; R8.1, in the presence of 0.02% BSA, MHBC medium, 1 × 10^5 CFU/mL, 37 °C
  MIC: 0.25 µg/mL
[2]; R15.5
  shift in MIC relative to wt, in words: modest but consistent shift
[2]; R15.5, in the presence of 0.02% BSA, MHBC medium, 1 × 10^5 CFU/mL, 37 °C
  MIC: 0.25 µg/mL
[2]; in the presence of 0.02% BSA
  MIC Ratio (R15.1 to wt): 4
S. aureus ATCC6538P (wt); wt, in the presence of 0.02% BSA, MHBC medium, 1 × 10^5 CFU/mL, 37 °C
  MIC: 0.06 µg/mL
[5]; ref [14],[15]
  binding to lipid II: bind to the essential peptidoglycan precursor lipid II

## nisin
[5]; [7]
  binding to lipid II: bind to lipid II
[5]; in membranes of bacterial cells, ref [34]
  binding to pyrophosphate cage of lipid II: binding of nisin to the pyrophosphate cage of lipid II

## CO[C@H]1/C=C/O[C@@]2(C)Oc3c(C)c(O)c4c(O)c(c(/C=N/N5CCN(C)CC5)c(O)c4c3C2=O)NC(=O)/C(C)=C\C=C\[C@H](C)[C@H](O)[C@@H](C)[C@@H](O)[C@@H](C)[C@H](OC(C)=O)[C@@H]1C [Rifampicin, rifampicin]
[1]; Staphylococcus aureus
  MIC: 0.004 µg/mL
[2]; Staphylococcus aureus
  MIC: 0.004 µg/mL
[2]
  MIC Ratio (R15.1 to wt): 1
S. aureus ATCC6538P (wt); Staphylococcus aureus, ATCC6538P, wt, MHBC medium, 1 × 10^5 CFU/mL, 37 °C, broth microdilution (CLSI), read-out: MIC
  MIC: 0.004 µg/mL

## gallidermin
[5]; [7]
  binding to lipid II: bind to lipid II

## duramycin
[6]
  binding to phosphatidylethanolamine-containing lipids: bind to phosphatidylethanolamine-containing lipids

## mersacidin
[5]; class II lantibiotics, ref [28]
  binding to lipid II: bind to lipid II

## CN[C@H](CC(C)C)C(=O)N[C@H]1C(=O)N[C@@H](CC(N)=O)C(=O)N[C@H]2C(=O)N[C@H]3C(=O)N[C@H](C(=O)N[C@H](C(=O)O)c4cc(O)cc(O)c4-c4cc3ccc4O)[C@H](O)c3ccc(c(Cl)c3)Oc3cc2cc(c3O[C@@H]2O[C@H](CO)[C@@H](O)[C@H](O)[C@H]2O[C@H]2C[C@](C)(N)[C@H](O)[C@H](C)O2)Oc2ccc(cc2Cl)[C@H]1O [Vancomycin, vancomycin]
[1]; R8.1
  shift in MIC relative to wt, in words: modest but consistent shift
[1]; R8.1, MHBC medium, 1 × 10^5 CFU/mL, 37 °C, broth microdilution (CLSI)
  MIC: 1 µg/mL
[2]; R15.5
  shift in MIC relative to wt, in words: modest but consistent shift
[2]; R15.5, MHBC medium, 1 × 10^5 CFU/mL, 37 °C, broth microdilution (CLSI)
  MIC: 2 µg/mL
[2]
  MIC Ratio (R15.1 to wt): 4
S. aureus ATCC6538P (wt); wt, MHBC medium, 1 × 10^5 CFU/mL, 37 °C, broth microdilution (CLSI)
  MIC: 0.5 µg/mL
[5]; ref [14],[15]
  binding to lipid II: bind to the essential peptidoglycan precursor lipid II

## labyrinthopeptin A2
virus
  antiviral activity: moderate antiviral activity
Neuropathic pain
  activity in a neuropathic pain model: highly active

## lacticin 3147
[5]; through mersacidin-like component, ref [33]
  complex with lipid II: form a complex with lipid II

## cinnamycin
[6]
  binding to phosphatidylethanolamine-containing lipids: bind to phosphatidylethanolamine-containing lipids

Source: PMC8624038, “Understanding the Mechanism of Action of NAI-112, a Lanthipeptide with Potent Antinociceptive Activity” (Molecules, 2021)
